From patent publication US10377753B2, “Substituted 4-azaindoles and their use as GluN2B receptor modulators” (Janssen Pharmaceutica NV, priority 2015, dated 2019)
Where a name gives a salt, the structure may show the parent alone.

What follows are compounds tested against cloned human NR1/NR2B ion channels (Homo sapiens (Human), UniProt Q05586+Q13224) (assay: HNR2BC: effects of test articles on cloned human NR1/NR2B ion channels expressed in mammalian cells (FLIPR calcium flux)). Details: cloned human NR1/NR2B, Table 5.
Assay type: cell-based
In short: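 In a stable Tet-On-induced cell line expressing human GluN1/GluN2B, Calcium 5-loaded cells were preincubated 5 min with compound, then stimulated 5 min with glutamate at ~EC80 plus 10 μM glycine, in pH 7.4 HEPES buffer. FLIPR calcium fluorescence was normalized to control wells.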

Chain of cloned human NR1/NR2B ion channels (Q13224 27-1484, other chains not shown): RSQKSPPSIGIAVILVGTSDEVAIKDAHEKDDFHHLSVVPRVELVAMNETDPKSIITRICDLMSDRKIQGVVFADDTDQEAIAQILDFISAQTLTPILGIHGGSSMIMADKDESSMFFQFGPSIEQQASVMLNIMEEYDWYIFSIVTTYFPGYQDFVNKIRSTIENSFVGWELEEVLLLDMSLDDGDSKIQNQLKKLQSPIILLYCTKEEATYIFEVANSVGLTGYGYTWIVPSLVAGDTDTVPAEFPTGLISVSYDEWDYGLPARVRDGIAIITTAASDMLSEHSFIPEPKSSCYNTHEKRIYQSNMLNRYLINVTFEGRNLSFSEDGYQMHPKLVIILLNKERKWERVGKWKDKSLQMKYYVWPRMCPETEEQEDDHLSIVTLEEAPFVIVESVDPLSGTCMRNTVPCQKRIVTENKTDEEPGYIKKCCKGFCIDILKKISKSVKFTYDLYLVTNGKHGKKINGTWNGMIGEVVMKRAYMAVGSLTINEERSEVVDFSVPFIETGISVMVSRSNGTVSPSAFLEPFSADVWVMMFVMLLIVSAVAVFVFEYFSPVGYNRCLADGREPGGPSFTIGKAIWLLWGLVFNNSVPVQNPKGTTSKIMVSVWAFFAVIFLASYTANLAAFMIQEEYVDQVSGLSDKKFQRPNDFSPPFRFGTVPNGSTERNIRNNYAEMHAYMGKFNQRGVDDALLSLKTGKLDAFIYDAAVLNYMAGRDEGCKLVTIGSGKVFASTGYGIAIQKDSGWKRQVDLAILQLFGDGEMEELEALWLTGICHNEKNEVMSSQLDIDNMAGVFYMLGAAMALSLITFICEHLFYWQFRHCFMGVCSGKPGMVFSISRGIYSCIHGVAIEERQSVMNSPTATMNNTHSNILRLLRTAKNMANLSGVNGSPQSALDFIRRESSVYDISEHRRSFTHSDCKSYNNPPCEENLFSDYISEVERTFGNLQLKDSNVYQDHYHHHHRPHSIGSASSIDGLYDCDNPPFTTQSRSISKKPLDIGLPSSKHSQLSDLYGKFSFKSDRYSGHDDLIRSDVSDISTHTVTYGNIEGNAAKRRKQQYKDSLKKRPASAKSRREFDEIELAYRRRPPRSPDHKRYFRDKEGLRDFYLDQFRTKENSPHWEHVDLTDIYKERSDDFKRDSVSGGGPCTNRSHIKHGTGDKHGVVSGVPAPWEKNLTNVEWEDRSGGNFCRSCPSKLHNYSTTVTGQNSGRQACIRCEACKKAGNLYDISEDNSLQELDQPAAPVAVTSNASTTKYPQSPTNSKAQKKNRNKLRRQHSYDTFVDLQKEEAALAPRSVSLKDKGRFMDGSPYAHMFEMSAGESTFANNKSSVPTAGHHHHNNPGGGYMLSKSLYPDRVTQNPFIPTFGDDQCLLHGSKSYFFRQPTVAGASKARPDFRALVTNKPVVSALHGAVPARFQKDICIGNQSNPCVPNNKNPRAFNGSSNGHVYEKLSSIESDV

SMILES	IC50	pIC50
Fc1ccc(-c2cnc3ccn(Cc4cccnn4)c3c2)cc1F [Example 131, 6-(3,4-Difluorophenyl)-1-(pyridazin-3-ylmethyl)pyrrolo[3,2-b]pyridine]	126 nM	
Cc1csc(-c2cnc3ccn(CC(=O)N4CCOCC4)c3c2)c1 [Example 132, 2-[6-(4-Methyl-2-thienyl)pyrrolo[3,2-b]pyridin-1-yl]-1-morpholino-ethanone]	126 nM	
O=C(Cn1ccc2ncc(-c3ccc(F)cc3F)cc21)N1CCC1 [Example 133, 1-(Azetidin-1-yl)-2-[6-(2,4-difluorophenyl)pyrrolo[3,2-b]pyridin-1-yl]ethanone]	79.4 nM	
O=C(Cn1ccc2ncc(-c3cccc(F)c3F)cc21)N1CCC1 [Example 134, 1-(Azetidin-1-yl)-2-[6-(2,3-difluorophenyl)pyrrolo[3,2-b]pyridin-1-yl]ethanone]	31.6 nM	
O=C(Cn1ccc2ncc(-c3cc(F)ccc3F)cc21)N1CCC1 [Example 135, 1-(Azetidin-1-yl)-2-[6-(2,5-difluorophenyl)pyrrolo[3,2-b]pyridin-1-yl]ethanone]	39.8 nM	
O=C(Cn1cc(F)c2ncc(-c3ccc(F)c(F)c3)cc21)C1CC1 [Example 136, 1-Cyclopropyl-2-[6-(3,4-difluorophenyl)-3-fluoro-pyrrolo[3,2-b]pyridin-1-yl]ethanone]	63.1 nM	
Cc1csc(-c2cnc3ccn(Cc4ccc(C(F)(F)F)o4)c3c2)c1 [Example 137, 6-(4-Methyl-2-thienyl)-1-[[5-(trifluoromethyl)-2-furyl]methyl]pyrrolo[3,2-b]pyridine]		7.7
CC(C)(C)C(=O)Cn1ccc2ncc(-c3ccc(F)c(F)c3)cc21 [Example 140, 1-[6-(3,4-Difluorophenyl)pyrrolo[3,2-b]pyridin-1-yl]-3,3-dimethyl-butan-2-one]	31.6 nM	
Cc1cc(-c2cnc3ccn(CC(=O)C(C)(C)C)c3c2)ccc1F [Example 141, 1-[6-(4-Fluoro-3-methyl-phenyl)pyrrolo[3,2-b]pyridin-1-yl]-3,3-dimethyl-butan-2-one]	398 nM	
CC(C)(C)C(=O)Cn1ccc2ncc(-c3cc(F)cc(F)c3)cc21 [Example 142, 1-[6-(3,5-Difluorophenyl)pyrrolo[3,2-b]pyridin-1-yl]-3,3-dimethyl-butan-2-one]	501 nM	
Cc1csc(-c2cnc3ccn(CC(=O)C(C)(C)C)c3c2)c1 [Example 143, 3,3-Dimethyl-1-[6-(4-methyl-2-thienyl)pyrrolo[3,2-b]pyridin-1-yl]butan-2-one]	794 nM	
CC(C)(C)C(=O)Cn1ccc2ncc(-c3cccc(C(F)F)c3)cc21 [Example 144, 1-[6-[3-(Difluoromethyl)phenyl]pyrrolo[3,2-b]pyridin-1-yl]-3,3-dimethyl-butan-2-one]	2000 nM	
CCc1cccc(-c2cnc3ccn(CC(=O)C(C)(C)C)c3c2)c1 [Example 145, 1-[6-(3-Ethylphenyl)pyrrolo[3,2-b]pyridin-1-yl]-3,3-dimethyl-butan-2-one]	501 nM	
Cc1cc(-c2cnc3c(Cl)cn(CC(=O)N(C)C)c3c2)ccc1F [Example 146, 2-[3-Chloro-6-(4-fluoro-3-methyl-phenyl)pyrrolo[3,2-b]pyridin-1-yl]-N,N-dimethyl-acetamide]	1000 nM	
CN(C)C(=O)Cn1cc(Cl)c2ncc(-c3ccc(F)c(F)c3)cc21 [Example 147, 2-[3-Chloro-6-(3,4-difluorophenyl)pyrrolo[3,2-b]pyridin-1-yl]-N,N-dimethyl-acetamide]	50.1 nM	
CN(C)C(=O)Cn1cc(Cl)c2ncc(-c3cc(F)cc(F)c3)cc21 [Example 148, 2-[3-Chloro-6-(3,5-difluorophenyl)pyrrolo[3,2-b]pyridin-1-yl]-N,N-dimethyl-acetamide]	50.1 nM	
Cc1csc(-c2cnc3c(Cl)cn(CC(=O)N(C)C)c3c2)c1 [Example 149, 2-[3-Chloro-6-(4-methyl-2-thienyl)pyrrolo[3,2-b]pyridin-1-yl]-N,N-dimethyl-acetamide]	50.1 nM	
CN(C)C(=O)Cn1cc(Cl)c2ncc(-c3cccc(C(F)F)c3)cc21 [Example 150, 2-[3-Chloro-6-[3-(difluoromethyl)phenyl]pyrrolo[3,2-b]pyridin-1-yl]-N,N-dimethyl-acetamide]		7.3
CCc1cccc(-c2cnc3c(Cl)cn(CC(=O)N(C)C)c3c2)c1 [Example 151, 2-[3-Chloro-6-(3-ethylphenyl)pyrrolo[3,2-b]pyridin-1-yl]-N,N-dimethyl-acetamide]	79.4 nM	
CN(C)C(=O)Cn1cc(Cl)c2ncc(-c3cc(F)c(F)c(F)c3)cc21 [Example 152, 2-[3-Chloro-6-(3,4,5-trifluorophenyl)pyrrolo[3,2-b]pyridin-1-yl]-N,N-dimethyl-acetamide]	100 nM	
Cc1csc(-c2cnc3ccn(CC(=O)NC4CC4)c3c2)c1 [Example 153, N-Cyclopropyl-2-[6-(4-methyl-2-thienyl)pyrrolo[3,2-b]pyridin-1-yl]acetamide trifluoroacetate salt]	63.1 nM	

SMILES	IC50	pIC50
Cc1cccc(-c2cnc3ccn(CC(=O)NC4CC4)c3c2)c1C [Example 154, N-Cyclopropyl-2-[6-(2,3-dimethylphenyl)pyrrolo[3,2-b]pyridin-1-yl]acetamide trifluoroacetate salt]	398 nM	
Cc1cccc(-c2cnc3ccn(CC(=O)NC4CC4)c3c2)c1 [Example 155, N-Cyclopropyl-2-[6-(m-tolyl)pyrrolo[3,2-b]pyridin-1-yl]acetamide trifluoroacetate salt]	251 nM	
O=C(Cn1ccc2ncc(-c3ccc(Cl)c(Cl)c3)cc21)NC1CC1 [Example 156, N-Cyclopropyl-2-[6-(3,4-dichlorophenyl)pyrrolo[3,2-b]pyridin-1-yl]acetamide trifluoroacetate salt]	200 nM	
Cc1c(-c2cnc3ccn(CC(=O)NC4CC4)c3c2)cccc1C(F)(F)F [Example 157, N-Cyclopropyl-2-[6-[2-methyl-3-(trifluoromethyl)phenyl]pyrrolo[3,2-b]pyridin-1-yl]acetamide trifluoroacetate salt]	251 nM	
O=C(Cn1ccc2ncc(-c3ccccc3)cc21)NC1CC1 [Example 158, N-Cyclopropyl-2-(6-phenylpyrrolo[3,2-b]pyridin-1-yl)acetamide trifluoroacetate salt]	631 nM	
Cc1c(F)ccc(-c2cnc3ccn(CC(=O)NC4CC4)c3c2)c1C [Example 159, N-Cyclopropyl-2-[6-(4-fluoro-2,3-dimethyl-phenyl)pyrrolo[3,2-b]pyridin-1-yl]acetamide trifluoroacetate salt]	251 nM	
Cc1ccccc1-c1cnc2ccn(CC(=O)NC3CC3)c2c1 [Example 160, N-Cyclopropyl-2-[6-(o-tolyl)pyrrolo[3,2-b]pyridin-1-yl]acetamide]	200 nM	
Cc1cc(F)ccc1-c1cnc2ccn(CC(=O)NC3CC3)c2c1 [Example 161, N-Cyclopropyl-2-[6-(4-fluoro-2-methyl-phenyl)pyrrolo[3,2-b]pyridin-1-yl]acetamide trifluoroacetate salt]	200 nM	
Cc1ccccc1-c1cnc2ccn(CC(=O)N3CCC3)c2c1 [Example 162, 1-(Azetidin-1-yl)-2-[6-(o-tolyl)pyrrolo[3,2-b]pyridin-1-yl]ethanone trifluoroacetate salt]	100 nM	
Cc1cc(F)ccc1-c1cnc2ccn(CC(=O)N3CCC3)c2c1 [Example 163, 1-(Azetidin-1-yl)-2-[6-(4-fluoro-2-methyl-phenyl)pyrrolo[3,2-b]pyridin-1-yl]ethanone trifluoroacetate salt]	79.4 nM	
Cc1c(F)ccc(-c2cnc3ccn(CC(=O)N4CCC4)c3c2)c1C [Example 164, 1-(Azetidin-1-yl)-2-[6-(4-fluoro-2,3-dimethyl-phenyl)pyrrolo[3,2-b]pyridin-1-yl]ethanone trifluoroacetate salt]	63.1 nM	
Cc1cccc(-c2cnc3ccn(CC(=O)N4CCC4)c3c2)c1C [Example 165, 1-(Azetidin-1-yl)-2-[6-(2,3-dimethylphenyl)pyrrolo[3,2-b]pyridin-1-yl]ethanone trifluoroacetate salt]	63.1 nM	
Cc1c(-c2cnc3ccn(CC(=O)N4CCC4)c3c2)cccc1C(F)(F)F [Example 167, 1-(Azetidin-1-yl)-2-[6-[2-methyl-3-(trifluoromethyl)phenyl]pyrrolo[3,2-b]pyridin-1-yl]ethanone trifluoroacetate salt]	39.8 nM	
O=C(Cn1ccc2ncc(-c3ccc(F)cc3)cc21)NC1CC1 [Example 168, N-Cyclopropyl-2-[6-(4-fluorophenyl)pyrrolo[3,2-b]pyridin-1-yl]acetamide]	251 nM	
Cc1cc(-c2cnc3c(C)cn(CC(=O)N4CCC4)c3c2)ccc1F [Example 169, 1-(Azetidin-1-yl)-2-[6-(4-fluoro-3-methyl-phenyl)-3-methyl-pyrrolo[3,2-b]pyridin-1-yl]ethanone trifluoroacetate salt]	200 nM	
CCCCn1ccc2ncc(-c3ccc(F)c(C)c3)cc21 [Example 170, 1-Butyl-6-(4-fluoro-3-methyl-phenyl)pyrrolo[3,2-b]pyridine trifluoroacetate salt]	316 nM	
Cc1cc(-c2cnc3ccn(CCC(C)C)c3c2)ccc1F [Example 171, 6-(4-Fluoro-3-methyl-phenyl)-1-isopentyl-pyrrolo[3,2-b]pyridine trifluoroacetate salt]	200 nM	
Cc1cc(-c2cnc3ccn(Cc4cccnc4)c3c2)ccc1F [Example 172, 6-(4-Fluoro-3-methyl-phenyl)-1-(3-pyridylmethyl)pyrrolo[3,2-b]pyridine trifluoroacetate salt]	794 nM	
Cc1cc(-c2cnc3ccn(CC4CC4)c3c2)ccc1F [Example 174, 1-(Cyclopropylmethyl)-6-(4-fluoro-3-methyl-phenyl)pyrrolo[3,2-b]pyridine trifluoroacetate salt]	158 nM	
Cc1cc(-c2cnc3c(Cl)cn(CC(=O)NC4CC4)c3c2)ccc1F [Example 176, 2-[3-Chloro-6-(4-fluoro-3-methyl-phenyl)pyrrolo[3,2-b]pyridin-1-yl]-N-cyclopropyl-acetamide trifluoroacetate salt]	31.6 nM	
